Consider 13 compounds from publication PMC9687798, “Atypical Substrates of the Organic Cation Transporter 1” (Biomolecules, 2022).

A word on the Km: it is the concentration of substrate that gives half-maximal velocity.

The target in series [1] is T1, human OCT1*1 (wild-type) (Homo sapiens, UniProt O15245).
T1 sequence (O15245 1-554): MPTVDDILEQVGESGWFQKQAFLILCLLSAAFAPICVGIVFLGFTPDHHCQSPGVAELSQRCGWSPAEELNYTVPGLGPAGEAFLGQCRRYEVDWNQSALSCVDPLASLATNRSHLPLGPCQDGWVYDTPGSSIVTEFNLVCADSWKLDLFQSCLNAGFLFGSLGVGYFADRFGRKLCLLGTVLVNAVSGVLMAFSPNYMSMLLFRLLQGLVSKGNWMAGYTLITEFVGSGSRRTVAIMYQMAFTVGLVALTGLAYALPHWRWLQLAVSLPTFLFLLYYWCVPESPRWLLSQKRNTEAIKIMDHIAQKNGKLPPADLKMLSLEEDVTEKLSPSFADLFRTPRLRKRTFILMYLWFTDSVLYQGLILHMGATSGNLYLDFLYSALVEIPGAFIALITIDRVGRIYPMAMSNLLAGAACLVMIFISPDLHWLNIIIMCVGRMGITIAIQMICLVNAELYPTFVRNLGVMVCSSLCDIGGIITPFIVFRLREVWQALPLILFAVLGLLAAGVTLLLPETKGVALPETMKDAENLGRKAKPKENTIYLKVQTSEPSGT
In words: Concentration-dependent uptake (transport kinetics) in HEK293 cells overexpressing OCT1 wild-type. To be noted: for Clint (±SEM): intrinsic clearance = ratio of Vmax and KM, OCT1 wild-type.

Series [2] deals with T1, human OCT1*1 (wild-type). In words: Cellular uptake ratio, OCT1-overexpressing HEK293 cells vs empty vector. Type of series: cell-based. As for the experimental part: (§1) The wild-type cell lines of OCT1 and OCT2, as well as the variant cell lines OCT1*2 and *3, were generated using the Flp-In system (Thermo Fisher Scientific, Darmstadt, Germany) as described in previous publications. The cell line overexpressing OCT3 was a kind gift from Dr. Koepsell and Dr. Gorbulev (University of Würzburg, Germany). Cells transfected with the empty pcDNA5/FRT vector were used for the transport experiments as a control cell line. All cells were cultured approximately up to passage 30.
(§2) Forty-eight hours before the transport experiments, 600,000 cells were plated on 12-well plates pre-coated with poly-D-lysine and incubated at 37 °C with 5% CO2. The prepared 12-well plate with cells was positioned on a heating plate pre-warmed to 37 °C. After removing the medium, the cells were washed with 37 °C HBSS+ (10 mM HEPES in Hank’s balanced salt solution, pH 7.4). Then, one pre-defined concentration of a substrate was added to each well. The incubation period was stopped by adding 2 mL of 4 °C HBSS+ and removing the cells from the heating plate. The cells were washed twice with 4 °C HBSS+. For cell lysis, the cells were incubated for 15 min with 500 µL of 80% acetonitrile (LGC Standards, Wesel, Germany), which contained a respective internal standard (Table 1).
(§3) For concentration-dependent transport, the cells were incubated with defined substrate concentrations (0.1, 1, 10, 30, 100, 300, 600, 1000 µM) for the respective pre-defined incubation times. […] The uptake by a transporter was normalised to the uptake by empty vector-transfected cells. […] The results of transport experiments were normalized to the total protein concentration per well. Total protein quantification was performed using a bicinchoninic acid assay with bovine serum albumin as standard.
(§4) The ratios of cellular uptake were calculated by dividing the total uptake of transporter-overexpressing cells by the total uptake into empty vector transfected cells. The concentration-dependent cellular net uptake was used for analysis of transport kinetics by subtracting for each substrate concentration the uptake of empty vector-transfected cells from the uptake of transporter-overexpressing cells. […] The intrinsic clearance Clint was expressed with the ratio of Vmax and KM.

The next series addresses T2, OCT3 (Homo sapiens, UniProt O75751).
T2 construct: expressed in transfected cells; host or cells: HEK293, stably transfected; gift from Dr. Koepsell and Dr. Gorbulev (University of Würzburg)
T2 sequence (O75751 1-556): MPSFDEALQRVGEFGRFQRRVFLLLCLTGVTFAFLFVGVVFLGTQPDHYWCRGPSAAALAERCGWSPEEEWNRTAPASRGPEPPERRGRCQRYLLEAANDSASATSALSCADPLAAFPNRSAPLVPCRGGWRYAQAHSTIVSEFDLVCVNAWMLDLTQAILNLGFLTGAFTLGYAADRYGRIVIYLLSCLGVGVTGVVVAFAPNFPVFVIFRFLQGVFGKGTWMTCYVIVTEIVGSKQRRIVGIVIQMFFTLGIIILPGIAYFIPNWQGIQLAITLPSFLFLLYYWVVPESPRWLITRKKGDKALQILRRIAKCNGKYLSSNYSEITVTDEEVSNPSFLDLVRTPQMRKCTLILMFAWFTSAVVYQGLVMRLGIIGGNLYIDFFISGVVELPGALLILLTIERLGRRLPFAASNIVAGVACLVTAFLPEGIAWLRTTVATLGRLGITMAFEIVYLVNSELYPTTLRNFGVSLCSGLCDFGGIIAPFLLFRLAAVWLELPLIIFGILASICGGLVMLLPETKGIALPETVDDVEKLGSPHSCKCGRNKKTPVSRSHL
As to the kind of experiment: Cellular uptake ratio, OCT3-overexpressing HEK293 cells vs empty vector. Type of series: cell-based. As for the experimental part:
as §1, §2, §3, §4

For a further series, the target named is T3, wild-type human OCT2 (Homo sapiens, UniProt O15244).
T3 sequence (O15244 1-555): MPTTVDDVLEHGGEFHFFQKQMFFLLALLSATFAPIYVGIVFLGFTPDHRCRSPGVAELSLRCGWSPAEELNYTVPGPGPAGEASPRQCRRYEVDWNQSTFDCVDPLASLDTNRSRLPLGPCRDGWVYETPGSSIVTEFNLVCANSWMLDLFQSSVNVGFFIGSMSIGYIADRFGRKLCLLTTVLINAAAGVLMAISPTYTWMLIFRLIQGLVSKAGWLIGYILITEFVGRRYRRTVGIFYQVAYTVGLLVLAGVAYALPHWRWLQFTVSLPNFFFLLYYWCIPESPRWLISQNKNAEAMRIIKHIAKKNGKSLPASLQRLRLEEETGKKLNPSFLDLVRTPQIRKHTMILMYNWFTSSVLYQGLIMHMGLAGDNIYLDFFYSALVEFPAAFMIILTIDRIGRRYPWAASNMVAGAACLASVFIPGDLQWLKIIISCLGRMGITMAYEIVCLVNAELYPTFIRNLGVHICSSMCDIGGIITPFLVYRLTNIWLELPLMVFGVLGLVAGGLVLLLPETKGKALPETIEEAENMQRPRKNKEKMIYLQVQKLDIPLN
In words: Cellular uptake ratio, OCT2-overexpressing HEK293 cells vs empty vector. Type of series: cell-based. As to the method: as §1, §2, §3, §4

[3] abbreviates: based on ratio uptake data at 1 µM.
Where [4] appears, read: good >5, poor 1–5, non-substrate <1 µL/mg protein/min or uptake not above empty vector.
The mark [5] stands for this setting: net uptake (OCT1 minus empty vector), HEK293, 0.1-1000 µM substrate, Michaelis–Menten.
[6] abbreviates: based on ratio uptake data at 100 µM (footnote *).

SMILES strings stand for the structures. Where two headings read alike, the source gives them in different places.

For the compound `Nc1ccn([C@@H]2O[C@H](CO)[C@@H](O)[C@@H]2O)c(=O)n1` [Cytarabine, cytarabine], the “OCT1 substrate classification from concentration-dependent uptake” value (shortened to “OCT1 substrate classification”) at human OCT1*1 (wild-type) [1] was “none of the four antimetabolites showed uptake by OCT1”.

With `Cc1ccc(NC(=O)c2ccc(CN3CCN(C)CC3)cc2)cc1Nc1nccc(-c2cccnc2)n1` [Imatinib, imatinib], the “uptake by OCT1 (normalised to empty vector)” value at human OCT1*1 (wild-type) [2] is “did not show uptake by OCT1”.

With `Nc1nc2c(ncn2COCCO)c(=O)[nH]1` [Acyclovir, acyclovir], the OCT3 transport category on OCT3 (setting [3]) was 0 (no transport by OCT1, OCT2, and OCT3 occurred (i.e., no kinetic parameters or uptake ratio <2 without significance)).

With `O=c1ncccn1[C@@H]1O[C@H](CO)[C@@H](O)[C@H]1O` [Zebularine, zebularine], the “OCT1 substrate classification” value on human OCT1*1 (wild-type) [1] (setting [4]) is “none of the four antimetabolites showed uptake by OCT1”.

As to `C[N+]1(C)CCC[C@H]1C(=O)[O-]` [Stachydrine, stachydrine], the OCT2 transport category at wild-type human OCT2 (setting [3]) is 0 (no transport by OCT1, OCT2, and OCT3 occurred (i.e., no kinetic parameters or uptake ratio <2 without significance)). Further, the OCT1 transport category at human OCT1*1 (wild-type) [2] (setting [3]) was 0 (no transport by OCT1, OCT2, and OCT3 occurred (i.e., no kinetic parameters or uptake ratio <2 without significance)). For the same compound, the OCT3 transport category on OCT3 (setting [3]) was 0 (no transport by OCT1, OCT2, and OCT3 occurred (i.e., no kinetic parameters or uptake ratio <2 without significance)). The “OCT1 substrate classification” value at human OCT1*1 (wild-type) [1] (setting [4]) was “very poor OCT1-mediated transport”. In addition, at human OCT1*1 (wild-type) [1] (setting [5]), the “Vmax (±SEM)” value stood at 238 ± 134 pmol/mg Protein/min.

`C[n+]1ccc(-c2ccccc2)cc1` [MPP^+, 1-methyl-4-phenylpyridinium]: the OCT2 transport category entry on wild-type human OCT2 (setting [3]) was “++ (very good substrates of OCTs that have an intrinsic clearance >15 or show an uptake ratio >10)”. Moreover, the “uptake ratio by OCT1 (normalised to empty vector)” value at human OCT1*1 (wild-type) [2] (1 µM and 100 µM substance) is “up to 30”. In addition, the OCT1 transport category result on human OCT1*1 (wild-type) [2] (setting [3]) is “++ (very good substrates of OCTs that have an intrinsic clearance >15 or show an uptake ratio >10)”. Moreover, on OCT3 (1 µM and 100 µM substance), the “uptake ratio by OCT3 (normalised to empty vector)” value is listed as “relevant uptake”. Besides, the OCT3 transport category result at OCT3 (setting [3]) was “++ (very good substrates of OCTs that have an intrinsic clearance >15 or show an uptake ratio >10)”. Besides, the “Clint (±SEM)” value on human OCT1*1 (wild-type) [1] is given as 20.8 ± 5.04 µL/mg Protein/min. At human OCT1*1 (wild-type) [1] (setting [5]), the “Vmax (±SEM)” value worked out at 2263 ± 184 pmol/mg Protein/min. Moreover, the Km on human OCT1*1 (wild-type) [1] (read-out: KM (±SEM), net uptake (OCT1 minus empty vector), HEK293, 0.1-1000 µM substrate, Michaelis–Menten) came out at 108 ± 17.4 µM.

For `Nc1nc(O)c2ncn(COC(CO)CO)c2n1` [Ganciclovir, ganciclovir], the OCT3 transport category on OCT3 (setting [3]) is 0 (no transport by OCT1, OCT2, and OCT3 occurred (i.e., no kinetic parameters or uptake ratio <2 without significance)).

In the case of `C[C@H]1COc2c(N3CCN(C)CC3)c(F)cc3c(=O)c(C(=O)O)cn1c23` [Levofloxacin, levofloxacin], the OCT3 transport category at OCT3 (setting [3]) is 0 (no transport by OCT1, OCT2, and OCT3 occurred (i.e., no kinetic parameters or uptake ratio <2 without significance)). Further, on human OCT1*1 (wild-type) [1], the “OCT1 substrate classification” value was “poor substrate of OCT1” and the “Clint (±SEM)” value worked out at 3.77 ± 2.77 µL/mg Protein/min.

On to `C[C@@](Cc1ccc(O)c(O)c1)(NN)C(=O)O` [Carbidopa, carbidopa], for which, at wild-type human OCT2 (setting [6]), the OCT2 transport category is 0 (no transport by OCT1, OCT2, and OCT3 occurred (i.e., no kinetic parameters or uptake ratio <2 without significance)). The OCT1 transport category on human OCT1*1 (wild-type) [2] (setting [6]) was 0 (no transport by OCT1, OCT2, and OCT3 occurred (i.e., no kinetic parameters or uptake ratio <2 without significance)). Besides, the OCT3 transport category at OCT3 (setting [6]) is 0 (no transport by OCT1, OCT2, and OCT3 occurred (i.e., no kinetic parameters or uptake ratio <2 without significance)). The “OCT1 substrate classification” value on human OCT1*1 (wild-type) [1] (setting [4]) is “linear increase in total uptake of both cell lines”.

On to `C[C@H](CS)C(=O)N1CCC[C@H]1C(=O)O` [Captopril, captopril], for which the OCT3 transport category at OCT3 (setting [3]) is 0 (no transport by OCT1, OCT2, and OCT3 occurred (i.e., no kinetic parameters or uptake ratio <2 without significance)).

In the case of `C=C1[C@H](CO)[C@@H](O)C[C@@H]1n1cnc2c(=O)[nH]c(N)nc21` [Entecavir, entecavir], at OCT3 (setting [3]), the OCT3 transport category was 0 (no transport by OCT1, OCT2, and OCT3 occurred (i.e., no kinetic parameters or uptake ratio <2 without significance)).

Regarding `Nc1ccn([C@@H]2O[C@H](CO)[C@@H](O)C2(F)F)c(=O)n1` [Gemcitabine, gemcitabine], the “OCT1 substrate classification” value at human OCT1*1 (wild-type) [1] (setting [4]) is given as “none of the four antimetabolites showed uptake by OCT1”.

As for `Nc1ncn([C@H]2C[C@H](O)[C@@H](CO)O2)c(=O)n1` [Decitabine, decitabine], the “OCT1 substrate classification” value at human OCT1*1 (wild-type) [1] (setting [4]) is on record as “none of the four antimetabolites showed uptake by OCT1”.
